What was measured:
[1] = test system: patients with acute migraine attack; assay: Clinical trial of THC vs ibuprofen in acute migraine attack (Example 2); type: in vivo, human; conditions: primary endpoint; assumption for sample size
From the text: To assess the effect of Tetrahydrocannabinol (THC) or a derivative thereof vs. NSAIDs (such as ibuprofen) in relieving acute migraine attack.
This example provides a prospective randomized double-blind, placebo-controlled trial.
The study population includes patients presenting with chief complaint an acute migraine attack to the emergency department (ED) at Soroka University Medical Center.
The study population is randomized into “double dummy” design (ratio 1:1): • Group 1—received Tetrahydrocannabinol (THC) and placebo tab ibuprofen. • Group 2—received placebo Tetrahydrocannabinol (THC) drops and tab ibuprofen.
The THC study doses include dose rages of between about 5 mg and up to 50 mg THC, preferably dose ranges of between about 10 mg THC and about 30 mg THC.
According to one embodiment, an ethanol extracted cannabis oil dissolved in a vegetable oil (with a distinct taste to differentiate it from the placebo oil) is used in this study. The aforementioned cannabis composition comprises THC dose range of about 20 mg to about 40 mg.
Headache and nausea severity is assessed using a 4-point pain severity scale (score 0-3) as detailed above. […] Additionally, THC blood levels are measured at about 30, 60 minutes and 2 hours. […]

[2] = test system: dural blood vessel dilation; conditions: dilation from electrical stimulation, calcitonin gene-related peptide, nitrous oxide and capsaicin; reversed by a cannabinoid antagonist; cited from earlier work

Row | SMILES | expected treatment failure rate [1] [%] | dural blood vessel dilation [2]
1 | CCCCCc1cc(O)c2c(c1)OC(C)(C)[C@@H]1CCC(C)=C[C@@H]21 [THC, Δ9-Tetrahydrocannabinol] | 40 | 
2 | CCCCC/C=C\C/C=C\C/C=C\C/C=C\CCCC(=O)NCCO [AEA, N-arachidonoylethanolamine] |  | inhibit

Reference: patent publication US20180289665A1, “USE OF CANNABIS TO TREAT MIGRAINE” (ONE WORLD CANNABIS LTD, priority 2014, published 2018)
